From US9968602B2, “Modulation of cell fates and activities by phthalazinediones” (Bach Pharma, Inc., priority 2002, dated 2018)

How the values were obtained:
[1] = tested on: MOMU-LV-Ts1 virus; assay: Movement disorder with paralysis induced by MOMU-LV-Ts1 virus in mice; assay type: in vivo; details: daily intraperitoneal injections of 200 μg
Text: In mice infected at 2 days of age with the Ts1 virus, hind limb paralysis occurs with severe wasting, especially of immune organs. In humans infected with HIV, severe immune deficiency with sensory and motor neuropathy also results. In these wasting syndromes with disordered life and death pathways in various cells, some therapeutic attempts with thiol redox modulators other than amino phthalazinediones have been partially successful (Lynn and Wong, NeuroImmunomodulation 4: 277-284, 1997; Yan et al., FASEB J. 15: 1132-1138, 2001). In these studies, phthalazinediones plus thiol redox modulators appear to be sufficient to maintain survival and an adequate intracellular thiol redox potential in brain and in thymus.
Since maintaining this excessive and imbalanced 4 Hz oscillation requires increased […] expenditures, agents such as amino phthalazinediones, which can modulate thiol redox status, downregulate mitochondrial energy production, and gain access to the overactivated STN neurons, can potentially suppress the 4 Hz overactivity and thereby suppress and modulate the downstream network activities responsible for the symptoms. […] Whether this is due to suppression of oscillatory activity in neurons, suppression of virus-induced astrocytic inflammatory responses, or both is under investigation. […]

[2] = tested on: mitochondrial transmembrane pores; details: cited from earlier work
[3] = tested on: ATM-deficient mice; assay: Thymic tumor formation and premature degeneration in ATM-deficient mice; assay type: in vivo; details: ATM deficiency
Text: In regulatory gene-dependent syndromes of premature aging, including ataxia telangiectasia, Down syndrome, trichothiodystrophy, Bloom's disease, p53 over-activity (De Boer et al., Science 296: 1276-1281, 2002; Tyner et al., Nature 415: 45-50, 2002), in which life and death of specific cell types are aberrant, appropriate treatments in vitro and in vivo with thiol redox modulators have been partially successful.
Other thiol redox modulators, such as N-acetyl cysteine and dehydrolipoic acid, also delay the premature degeneration of cells and the thymomas. Thiol redox modulators also correct the delayed differentiation and excessive production of DNA in ATM-deficient lymphoid cells (Yan et al., FASEB J. 15: 1132-1138, 2001; Lynn et al., unpublished). However, in the ATM-deficient mice, treatment was fully successful only if the thiol redox modulators were applied early, before two weeks of age and before tumor development.
Whether amino phthalazinediones with other thiol redox modulators, which suppress growth of non-transformed ATM-deficient cells in vitro, can fully suppress tumors in vivo, without toxicity, has not been rigorously evaluated. Cross-linking redox modulators such as diamide, menadione, and oxidized phthalazines are known to stop cell growth, activate caspases, and initiate apoptosis in some tumor cells (Pias and Aw, FASEB J. 16: 781-790, 2002).

| Structure (SMILES) | premature degeneration of cells and the thymomas [3] | further results |
| --- | --- | --- |
| Nc1cccc2c([O-])n[nH]c(=O)c12.[Na+] [4-sodium amino phthalazinedione] |  | progress of the movement disorder with paralysis [1]: significantly delay |
| CN(C)C(=O)/N=N/C(=O)N(C)C [Diamide] |  | opening of mitochondrial transmembrane pores [2]: completely opens mitochondrial transmembrane pores |
| CC(=O)N[C@@H](CS)C(=O)O [N-acetyl cysteine] | delay |  |
| O=C(O)CCCC[C@@H](S)CCS [dehydrolipoic acid] | delay |  |
